In brackets after ≈: the same amount, converted by molar mass. Counter-ions that a name gives are not always drawn. Like-named read-outs stand apart in the source and are kept apart here. One block for each molecule: values may come before it.
Columns and labels:
Protease XXIII = assay: Homogeneous aqueous enzymatic resolution (ester hydrolysis) with enzyme A; format: biochemical, Aspergillus oryzae; conditions: for enantiomeric excess: pH 7.5, 100 mg Protease XXIII (A)
Method: The enzymes used in Examples 6.2.1.1-6.2.1.17, 6.2.1.20-6.2.1.21, 6.2.1.23-6.2.1.28, 6.2.2.7, and 6.2.3.1-6.2.3.5 that follow were all proteases commercially available from Sigma Chemical Co., St. Louis, MO. […] For examples 6.2.2.5-6.2.2.6, Candida lipase obtained from Genzyme Corporation was used.
No further purification was performed.
The aqueous layer was retained.

[1] = target: T1, Protease VIII: "Subtilopeptidase A" (Bacillus licheniformis, UniProt P00780); assay: Homogeneous aqueous enzymatic resolution (ester hydrolysis) with enzyme B; format: biochemical; conditions: for % e.e.: acid product
T1 sequence (P00780 106-379): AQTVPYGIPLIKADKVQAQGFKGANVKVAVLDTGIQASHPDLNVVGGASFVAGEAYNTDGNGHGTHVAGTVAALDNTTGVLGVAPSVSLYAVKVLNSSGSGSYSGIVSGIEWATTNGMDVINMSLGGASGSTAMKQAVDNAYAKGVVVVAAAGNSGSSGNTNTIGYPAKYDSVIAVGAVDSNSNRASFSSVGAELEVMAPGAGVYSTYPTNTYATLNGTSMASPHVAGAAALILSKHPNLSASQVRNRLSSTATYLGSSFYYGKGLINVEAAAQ

[2] = target: T2, Protease XXVII: "Nagarse" (Bacillus amyloliquefaciens, UniProt P00782); assay: Homogeneous aqueous enzymatic resolution (ester hydrolysis) with enzyme D; format: biochemical; conditions: 0.010 mol ester in 100 ml 0.2 M sodium phosphate buffer pH 7.8, 150 mg enzyme D
T2 sequence (P00782 108-382): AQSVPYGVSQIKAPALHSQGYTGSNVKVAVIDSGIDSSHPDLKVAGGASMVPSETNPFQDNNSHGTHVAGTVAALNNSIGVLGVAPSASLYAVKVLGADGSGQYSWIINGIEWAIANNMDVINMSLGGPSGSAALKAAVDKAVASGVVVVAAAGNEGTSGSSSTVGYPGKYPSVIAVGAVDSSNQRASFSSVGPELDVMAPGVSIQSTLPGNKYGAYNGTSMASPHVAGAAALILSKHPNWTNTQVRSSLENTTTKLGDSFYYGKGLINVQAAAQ
Source text: (§1) The enzymes used in Examples 6.2.1.1-6.2.1.17, 6.2.1.20-6.2.1.21, 6.2.1.23-6.2.1.28, 6.2.2.7, and 6.2.3.1-6.2.3.5 that follow were all proteases commercially available from Sigma Chemical Co., St. Louis, MO. These proteases are listed in each example using the Sigma numbering system, which is summarized below: • Protease VIII: "Subtilopeptidase A", product P-5380 (also known as subtilisin Carlsberg) • Protease XIV: from Streptomyces griseus, product P-5147 • Protease XVI: from Bacillus subtilis, product P-8775 • Protease XXIII: from Aspergillus oryzae, product P-4032 • Protease XXVII: "Nagarse", product P-4789 • Protease XXIV: bacterial protease, product P-8038 An additional protease enzyme, which was designated Prozyme 6, was obtained from the Amano Enzyme Corporation and used in Examples 6.2.1.18-6.2.19, 6.2.1.22, 6.2.1.29-6.2.1.30 and 6.2.2.1-6.2.2.4 described below. A pig liver esterase was used in Example 6.21.11; this enzyme, obtained from Sigma Chemical Company, was designated as their product E-3128. For examples 6.2.2.5-6.2.2.6, Candida lipase obtained from Genzyme Corporation was used. Finally, Candida lipase, product L-1754, obtained from Sigma Chemical Co. was used in Example 6.2.2.7.

Protease XVI = assay: Homogeneous aqueous enzymatic resolution (ester hydrolysis) with enzyme C; format: biochemical, Bacillus subtilis; conditions: 10.0 mmol ester in 100 ml 0.2 M phosphate buffer pH 7.0, 100 mg enzyme C, 20-22 °C, 20 hours; for % e.e.: acid product, R
Source text: as §1

[3] = Solubility by absorbance of saturated solutions at 262 nm; format: physicochemical
Prozyme 6 = assay: Homogeneous aqueous enzymatic resolution (ester hydrolysis) with enzyme F; format: biochemical, Aspergillus oryzae; conditions: for % CONVERSION / % e.e.: 10 mmol ester in 100 ml 0.2 M buffer pH 7.0, 100 mg Prozyme 6 (F), 25 °C, 18 hours; for % e.e.: acid product, R
[4] = test system: Candida lipase (Genzyme Corporation); assay: Asymmetric hydrolysis in a multiphase membrane bioreactor with enzyme G; format: biochemical, Candida cylindracea; conditions: neat liquid ester, pH 7.7
Source text: The module was then drained.
This material was recrystallized from hexane.

[5] = test system: Candida lipase (Sigma L 1754); assay: Asymmetric hydrolysis in a multiphase membrane bioreactor with enzyme H; conditions: for rate of ester hydrolysis: pH 7.0
Method: The enzyme solution was recirculated from the shell side to the lumen side and back to the solution reservoir in an ultra-filtration mode. […] The procedure was completed in one hour.
After loading the enzyme to the reactor, recirculation of 210 gm. […] The recirculation rate was 400 ml/min and the average pressure on the shell compartment was kept at 45,5 KPa (6.5 psi) by adjusting a throttling valve at the shell side exit. On the lumen side 1 liter of 0.05 M K2 PO4 was recirculated at a rate of 400 ml/min. The pH of the aqueous reservoir was kept at 7.0 by addition of 1 M NaOH. The reactor was run continuously for 6.8 days.
The reaction progress and rate were monitored by following the caustic consumption.

[6] = 10.0 mmol ester in 100 ml 0.2 M phosphate buffer pH 7.0, 100 mg enzyme A, 20-22 °C, 20 hours
[7] = acid product, R, 10.0 mmol ester in 100 ml 0.2 M phosphate buffer pH 7.0, 100 mg enzyme A, 20-22 °C, 20 hours
[8] = aqueous buffer, saturated solutions, pH 7 (50 mM phosphate buffer), room temperature, read-out: Solubility
[9] = water, as stated in the text of the examples, read-out: water solubility

Compound: CC(C)Cc1ccc(C(C)C(=O)OCCS(=O)(=O)O)cc1 (racemic) [Compound 2, Sodium Salt of 2-Sulfoethyl Ester of 2-(4-Isobutylphenyl) propanoic Acid]
% CONVERSION (Protease XXIII; [6]): 22.3% | % e.e. (Protease XXIII; [7]): 93.3%

Compound: CC(C)Cc1ccc(C(C)C(=O)OCCCS(=O)(=O)O)cc1 (racemic) [Compound 3, Potassium Salt of 3-Sulfopropyl Ester of 2-(4-Isobutylphenyl) propanoic Acid]
% CONVERSION (Protease XXIII; [6]): 50.0% | % CONVERSION (Protease XXIII; 0.010 mol ester in 100 ml 0.2 M sodium phosphate buffer pH 7.8, 150 mg enzyme A): 47.1% | conversion of the racemic ester to acid (Protease XXIII; about 1 M ester, 40 ml, 0.1 M potassium phosphate pH 7.0, 1.00 gm protease (A), 23.9 hours at room temperature, by hydroxide titration): 29% | % e.e. (Protease XXIII; [7]): 84.2% | % e.e. (Protease XXIII; acid product, R, 0.010 mol ester in 100 ml 0.2 M sodium phosphate buffer pH 7.8, 150 mg enzyme A): 97.7% | % CONVERSION ([1]; 0.010 mol ester in 100 ml 0.2 M sodium phosphate buffer pH 7.8, 150 mg enzyme B): 36.4% | % e.e. ([1]; R, 0.010 mol ester in 100 ml 0.2 M sodium phosphate buffer pH 7.8, 150 mg enzyme B): 98.6% | % CONVERSION [2]: 32.0% | % e.e. ([2]; acid product, R): 91.0%

Compound: COc1ccc2cc(C(C)C(=O)OCC[N+](C)(C)C)ccc2c1 (racemic) [Compound 11, Methyl Sulfate Salt of 2-(N,N,N-Trimethylammonium) ethyl Ester of 2-(6-Methoxy-2-naphthyl)propanoic Acid]
% CONVERSION (Prozyme 6): 24.3% | % e.e. (Prozyme 6): 34.0%

Compound: COc1ccc2cc(C(C)C(=O)OCCC[N+](C)(C)C)ccc2c1 (racemic) [Compound 12, Methyl Sulfate Salt of 3-(N,N,N-Trimethylammonium) propyl Ester of 2-(6-Methoxy-2-naphthyl)propanoic Acid]
solubility [3, 8]: 1610 mM | % CONVERSION (Prozyme 6): 34.0% | % e.e. (Prozyme 6): 21.6%

Compound: CC(Oc1ccc(Cl)cc1)C(=O)OCS(=O)(=O)O (racemic) [Compound 17, Sodium Salt of the Sulfomethyl Ester of 2-(4-Chlorophenoxy) propanoic Acid]
completion of reaction (Prozyme 6; 10 mmol ester in 100 ml 0.2 M sodium phosphate buffer pH 7.0, 35 mg Enzyme F, 30 °C, 1 hour): 22.5%

Compound: CC(C)Cc1ccc(C(C)C(=O)OCCN(C)C)cc1 (stereo not drawn) [2-(N,N-dimethylamino)ethyl ester of ibuprofen]
solubility [3, 8]: 10 mM (≈ 2770 µg/mL)

Compound: COCCOC(=O)C(C)c1ccc(CC(C)C)cc1 (stereo not drawn) [Methoxyethyl ester of ibuprofen]
solubility [3, 8]: 0.18 mM (≈ 47.6 µg/mL)

More lines, main results first:

% CONVERSION (Protease XXIII; [6]): 43.2% | % e.e. (Protease XXIII; [7]): 97.4% | % CONVERSION (Protease XVI): 22.0% | % e.e. (Protease XVI): 61.7% | solubility [3, 8]: 1130 mM | % CONVERSION ([1]; 10.0 mmol ester in 100 ml 0.2 M phosphate buffer pH 7.0, 100 mg enzyme B, 20-22 °C, 20 hours): 20.0% | % e.e. ([1]; R, 10.0 mmol ester in 100 ml 0.2 M phosphate buffer pH 7.0, 100 mg enzyme B, 20-22 °C, 20 hours): 92.1%
Compound: CC(C)Cc1ccc(C(C)C(=O)OCCCCS(=O)(=O)O)cc1 (racemic) [Compound 4, Potassium Salt of 4-Sulfobutyl Ester of 2-(4-Isobutylphenyl) propanoic Acid]

% CONVERSION (Protease XVI): 5.3% | % e.e. (Protease XVI): 75.6%
Compound: CC(C)Cc1ccc(C(C)C(=O)OCCOP(=O)(O)O)cc1 (racemic) [Compound 5, Disodium Salt of the Phosphoric Acid Ester of the 2-Hydroxyethyl Ester of 2-(4-Isobutylphenyl) propanoic Acid]

% CONVERSION (Protease XXIII; [6]): 24.3% | % e.e. (Protease XXIII; [7]): 96.5%
Compound: CC(C)Cc1ccc(C(C)C(=O)OCCCOS(=O)(=O)O)cc1 (racemic) [Compound 6, Potassium Salt of the Sulfuric Acid Ester of 3-Hydroxypropyl Ester of 2-(4-Isobutylphenyl) propanoic Acid]

conversion (enzymatic hydrolysis) (Protease XXIII; 2.0 gm ester in 400 ml 50 mM sodium phosphate buffer pH 7.5, 100 mg Protease XXIII (A), 25 degrees, 16 hours): 18% | enantiomeric excess (Protease XXIII; R isomer of naproxen, acid product, 16 hours): 61.2% | enantiomeric excess (Protease XXIII; S isomer of Naproxen from chemical hydrolysis (pH 12) of the unconverted ester, 16 hours): 45.5%
Compound: COc1ccc2cc(C(C)C(=O)OCS(=O)(=O)O)ccc2c1 (racemic) [Compound 9, Sodium Salt of Sulfomethyl Ester of 2-(6-Methoxy-2-naphthyl) propanoic Acid]

% CONVERSION (Protease XXIII; [6]): 30.1% | % e.e. (Protease XXIII; [7]): >99% | solubility [3, 8]: 2180 mM
Compound: CC(C)Cc1ccc(C(C)C(=O)OCC[N+](C)(C)C)cc1 (racemic) [Compound 10, Iodide Salt of 2-(N,N,N-Trimethylammonium)ethyl Ester of 2-(4-Isobutylphenyl) propanoic Acid]

conversion as measured by titrimetry ([1]; 8.05 gm ester in 300 ml 0.1 M potassium phosphate buffer pH 7.0, 20 mg subtilisin protease (B), point at which the reaction was stopped): 25%
Compound: CC(Cl)C(=O)OCCCS(=O)(=O)O (racemic) [Compound 13, Potassium Salt of 3-Sulfopropyl Ester of 2-Chloropropanoic Acid]

% CONVERSION (Protease XXIII; 10.0 mmol ester in 100 ml 0.2 M buffer pH 7.0, 100 mg enzyme A, 25 °C, 18 hours): 53% | % e.e. (Protease XXIII; acid product, S, 10.0 mmol ester in 100 ml 0.2 M buffer pH 7.0, 100 mg enzyme A, 25 °C, 18 hours): 3% | % CONVERSION ([1]; 10.0 mmol ester in 100 ml 0.2 M buffer pH 7.0, 100 mg enzyme B, 25 °C, 18 hours): 26% | % e.e. ([1]; S, 10.0 mmol ester in 100 ml 0.2 M buffer pH 7.0, 100 mg enzyme B, 25 °C, 18 hours): 10%
Compound: CC(CSC(=O)c1ccccc1)C(=O)OCS(=O)(=O)O (racemic) [Compound 16, Potassium Salt of the Sulfomethyl Ester of (±)-S-3-Benzoylthio-2-methylpropanoic Acid]

solubility [3, 8]: 0.4 mM (≈ 115 µg/mL) | solubility [3, 9]: ~0.4 mM (≈ 115 µg/mL)
Compound: CC(C)Cc1ccc(C(C)C(=O)OCC(F)(F)F)cc1 (racemic) [Compound 19, 2,2,2-Trifluoroethyl Ester of 2-(4-Isobutylphenyl)propanoic Acid]
average hydrolytic rate ([4]; first 60 minutes, 3.0 grams Candida lipase in membrane): 160 amol/min | average hydrolysis rate ([4]; over the next 76 hours, by titrimetry): 21 µmol/min | conversion to acid ([4]; over the next 76 hours): about 9.8%

solubility [3, 8]: 1.2 mM (≈ 265 µg/mL) | solubility [3, 9]: ~1.2 mM (≈ 265 µg/mL)
Compound: CCCCCCCCOC(=O)C(C)Cl (racemic) [Compound 20, Octyl Ester of 2-Chloropropanoic Acid]
rate of ester hydrolysis ([5]; at the beginning of the experiment, 210 gm neat ester, 30 grams Candida lipase in membrane): 186 µmol/min | rate of ester hydrolysis ([5]; at the end of the experiment (6.8 days)): 25 µmol/min | initial ester hydrolyzed ([5]; when the experiment was terminated (6.8 days)): 41%
